# Laboratory results from US20240270762A1, “PENICILLIN-BINDING PROTEIN INHIBITORS” (priority 2021, published 2024).
# Experiments:
# Assay in all cases: Liquid broth MIC in Fastidious broth
# N. gonorrhoeae WHO X = settings: Neisseria gonorrhoeae, read-out: Minimum Inhibitory Concentration, WHO X
# N. gonorrhoeae CDC-0197 = settings: Neisseria gonorrhoeae, CDC0197, read-out: Minimum Inhibitory Concentration, CDC-0197
# Method: ATCC 49226, FA1090, MS11, WHO G, WHO L, and WHO M produce wild type or wild-type like PBP2. WHO K, WHO X, WHO Z, WHO Q, and CDC-0197 produce mosaic PBP2. Liquid broth-based assays were used for antibacterial testing of PBP inhibitors in Neisseria gonorrhoeae. Briefly, cryo-preserved bacterial cultures of clinical strains were streaked for isolation on Chocolate Agar (72 g/L (2×) GC Agar Base (BD #228950) and 2% (2×) Hemoglobin was autoclaved at 121° C. for 20 minutes to sterilize. Once cooled to ˜50° C. the 2×GC Agar Base and 2× Hemoglobin solutions are combined and 1% IsoVitaleX Enrichment (BD #211876) was added to the solution). Strains were incubated at 36° C. and 5% CO2 to allow growth of colonies, 24 hours before inoculum preparation. 2-fold serial dilutions of test compounds were conducted in a 96 well plate with a final volume of 75 μL per well at 2-fold the final desired concentration in Fastidious broth (Remel #R07664). For preparation of assay inoculum, a direct suspension was prepared by aseptically swabbing 10-15 colonies from agar plates into culture tubes containing 2 mL of fresh sterile saline. After the dilution plates were set up, direct suspensions were then diluted in a cuvette containing sterile saline and the optical density was measured at 600 nm. Inocula were diluted such that 75 μL of this culture in Fastidious broth results in a starting bacterial concentration of 5×10^5 CFU/mL when added to the dilution plates. The plates were incubated for ˜24 hours at 36° C. and 5% CO2.
# [1] = system: N. gonorrhoeae ATCC 49226; settings: Neisseria gonorrhoeae, ATCC49226, read-out: Minimum Inhibitory Concentration, ATCC 49226
# N. gonorrhoeae WHO M = settings: Neisseria gonorrhoeae, read-out: Minimum Inhibitory Concentration, WHO M
# N. gonorrhoeae WHO K = settings: Neisseria gonorrhoeae, read-out: Minimum Inhibitory Concentration, WHO K
# N. gonorrhoeae WHO L = settings: Neisseria gonorrhoeae, read-out: Minimum Inhibitory Concentration, WHO L
# N. gonorrhoeae WHO Z = settings: Neisseria gonorrhoeae, read-out: Minimum Inhibitory Concentration, WHO Z
# N. gonorrhoeae FA1090 = settings: Neisseria gonorrhoeae, FA1090, read-out: Minimum Inhibitory Concentration, FA 1090
# N. gonorrhoeae WHO Q = settings: Neisseria gonorrhoeae, read-out: Minimum Inhibitory Concentration, WHO Q
# N. gonorrhoeae MS11 = settings: Neisseria gonorrhoeae, MS11, read-out: Minimum Inhibitory Concentration, MS11
Compound,MIC (N. gonorrhoeae WHO X) [µg/mL],MIC (N. gonorrhoeae CDC-0197) [µg/mL],MIC [1] [µg/mL],MIC (N. gonorrhoeae WHO M) [µg/mL],MIC (N. gonorrhoeae WHO K) [µg/mL],MIC (N. gonorrhoeae WHO L) [µg/mL],MIC (N. gonorrhoeae WHO Z) [µg/mL],MIC (N. gonorrhoeae FA1090) [µg/mL],MIC (N. gonorrhoeae WHO Q) [µg/mL],MIC (N. gonorrhoeae MS11) [µg/mL]
"Cc1cnccc1C(=O)NCCCN1CCN(C(=O)NC(C(=O)N[C@H]2Cc3ccc(F)c(C(=O)O)c3OB2O)c2cc(F)c(O)c(O)c2Cl)C(=O)C1=O (stereo partly drawn) [Example 297, (3R)-3-(2-(2-chloro-5-fluoro-3,4-dihydroxyphenyl)-2-(4-(3-(3-methylisonicotinamido)propyl)-2,3-dioxopiperazine-1-carboxamido)acetamido)-7-fluoro-2-hydroxy-3,4-dihydro-2H-benzo[e][1,2]oxaborinine-8-carboxylic acid]",> 64,> 64,16 to 32,16 to 32,> 64,> 64,> 64,1 to 2,> 64,16 to 32
"O=C(NCCCN1CCN(C(=O)NC(C(=O)N[C@H]2Cc3ccc(F)c(C(=O)O)c3OB2O)c2cc(F)c(O)c(O)c2Cl)C1=O)c1ccc(O)cc1 (stereo partly drawn) [Example 280, (3R)-3-(2-(2-chloro-5-fluoro-3,4-dihydroxyphenyl)-2-(3-(3-(4-hydroxybenzamido)propyl)-2-oxoimidazolidine-1-carboxamido)acetamido)-7-fluoro-2-hydroxy-3,4-dihydro-2H-benzo[e][1,2]oxaborinine-8-carboxylic acid]",> 64,> 64,16 to 32,16 to 32,> 64,> 64,16 to 32,4 to 8,> 64,16 to 32
"O=C(NCCCN1CCN(C(=O)NC(C(=O)N[C@H]2Cc3ccc(F)c(C(=O)O)c3OB2O)c2cc(F)c(O)c(O)c2Cl)C(=O)C1=O)c1ccc(O)c(F)c1 (stereo partly drawn) [Example 304, (3R)-3-(2-(2-chloro-5-fluoro-3,4-dihydroxyphenyl)-2-(4-(3-(3-fluoro-4-hydroxybenzamido)propyl)-2,3-dioxopiperazine-1-carboxamido)acetamido)-7-fluoro-2-hydroxy-3,4-dihydro-2H-benzo[e][1,2]oxaborinine-8-carboxylic acid]",> 64,> 64,16 to 32,16 to 32,> 64,> 64,> 64,1 to 2,> 64,16 to 32
"O=C(NCCCN1CCN(C(=O)NC(C(=O)N[C@H]2Cc3ccc(F)c(C(=O)O)c3OB2O)c2cc(F)c(O)c(O)c2Cl)C1=O)c1cccnc1 (stereo partly drawn) [Example 281, (3R)-3-(2-(2-chloro-5-fluoro-3,4-dihydroxyphenyl)-2-(3-(3-(nicotinamido)propyl)-2-oxoimidazolidine-1-carboxamido)acetamido)-7-fluoro-2-hydroxy-3,4-dihydro-2H-benzo[e][1,2]oxaborinine-8-carboxylic acid]",> 64,> 64,> 64,16 to 32,> 64,> 64,16 to 32,4 to 8,> 64,> 64
"O=C(NCCS(=O)(=O)N1CCN(C(=O)N[C@H](C(=O)N[C@H]2Cc3ccc(F)c(C(=O)O)c3OB2O)c2cc(F)c(O)c(O)c2Cl)C1=O)c1ccc(O)cc1 [Example 286, (R)-3-((S)-2-(2-chloro-5-fluoro-3,4-dihydroxyphenyl)-2-(3-((2-(4-hydroxybenzamido)ethyl)sulfonyl)-2-oxoimidazolidine-1-carboxamido)acetamido)-7-fluoro-2-hydroxy-3,4-dihydro-2H-benzo[e][1,2]oxaborinine-8-carboxylic acid]",> 64,> 64,> 64,> 64,> 64,> 64,> 64,> 64,> 64,> 64
"O=C(NCCCS(=O)(=O)N1CCN(C(=O)NC(C(=O)N[C@H]2Cc3ccc(F)c(C(=O)O)c3OB2O)c2cc(F)c(O)c(O)c2Cl)C1=O)Nc1ccncc1 (stereo partly drawn) [Example 291, (3R)-3-(2-(2-chloro-5-fluoro-3,4-dihydroxyphenyl)-2-(2-oxo-3-((3-(3-(pyridin-4-yl)ureido)propyl)sulfonyl)imidazolidine-1-carboxamido)acetamido)-7-fluoro-2-hydroxy-3,4-dihydro-2H-benzo[e][1,2]oxaborinine-8-carboxylic acid]",> 64,16 to 32,16 to 32,16 to 32,> 64,> 64,4 to 8,4 to 8,16 to 32,16 to 32
"O=C(NCCCN1CCN(C(=O)N[C@@H](C(=O)N[C@H]2Cc3ccc(F)c(C(=O)O)c3OB2O)c2cc(F)c(O)c(O)c2Cl)C(=O)C1=O)c1ccncc1O [Example 296, (R)-3-((R)-2-(2-chloro-5-fluoro-3,4-dihydroxyphenyl)-2-(4-(3-(3-hydroxyisonicotinamido)propyl)-2,3-dioxopiperazine-1-carboxamido)acetamido)-7-fluoro-2-hydroxy-3,4-dihydro-2H-benzo[e][1,2]oxaborinine-8-carboxylic acid]",> 64,> 64,16 to 32,16 to 32,> 64,> 64,> 64,1 to 2,> 64,16 to 32
"O=C(O)c1c(F)ccc2c1OB(O)[C@@H](NC(=O)C(NC(=O)N1CCN(Cc3ccc(O)c(O)c3Cl)C(=O)C1=O)c1cc(F)c(O)c(O)c1Cl)C2 (stereo partly drawn) [Example 292, (3R)-3-(2-(4-(2-chloro-3,4-dihydroxybenzyl)-2,3-dioxopiperazine-1-carboxamido)-2-(2-chloro-5-fluoro-3,4-dihydroxyphenyl)acetamido)-7-fluoro-2-hydroxy-3,4-dihydro-2H-benzo[e][1,2]oxaborinine-8-carboxylic acid]",> 64,> 64,> 64,> 64,> 64,> 64,> 64,16 to 32,> 64,> 64
"O=C(NCCCN1CCN(C(=O)N[C@@H](C(=O)N[C@H]2Cc3ccc(F)c(C(=O)O)c3OB2O)c2cc(F)c(O)c(O)c2Cl)C1=O)Nc1ccc(O)cc1 [Example 284, (R)-3-((R)-2-(2-chloro-5-fluoro-3,4-dihydroxyphenyl)-2-(3-(3-(3-(4-hydroxyphenyl)ureido)propyl)-2-oxoimidazolidine-1-carboxamido)acetamido)-7-fluoro-2-hydroxy-3,4-dihydro-2H-benzo[e][1,2]oxaborinine-8-carboxylic acid]",> 64,16 to 32,4 to 8,4 to 8,16 to 32,16 to 32,4 to 8,1 to 2,4 to 8,4 to 8
"O=C(NCCS(=O)(=O)N1CCN(C(=O)NC(C(=O)N[C@H]2Cc3ccc(F)c(C(=O)O)c3OB2O)c2cc(F)c(O)c(O)c2Cl)C1=O)Nc1ccc(O)cc1 (stereo partly drawn) [Example 289, (3R)-3-(2-(2-chloro-5-fluoro-3,4-dihydroxyphenyl)-2-(3-((2-(3-(4-hydroxyphenyl)ureido)ethyl)sulfonyl)-2-oxoimidazolidine-1-carboxamido)acetamido)-7-fluoro-2-hydroxy-3,4-dihydro-2H-benzo[e][1,2]oxaborinine-8-carboxylic acid]",> 64,16 to 32,16 to 32,4 to 8,16 to 32,> 64,4 to 8,1 to 2,4 to 8,4 to 8
"O=C(NCCCS(=O)(=O)N1CCN(C(=O)NC(C(=O)N[C@H]2Cc3ccc(F)c(C(=O)O)c3OB2O)c2cc(F)c(O)c(O)c2Cl)C1=O)Nc1cccnc1 (stereo partly drawn) [Example 278, (3R)-3-(2-(2-chloro-5-fluoro-3,4-dihydroxyphenyl)-2-(2-oxo-3-((3-(3-(pyridin-3-yl)ureido)propyl)sulfonyl)imidazolidine-1-carboxamido)acetamido)-7-fluoro-2-hydroxy-3,4-dihydro-2H-benzo[e][1,2]oxaborinine-8-carboxylic acid]",> 64,16 to 32,16 to 32,16 to 32,> 64,> 64,16 to 32,4 to 8,16 to 32,16 to 32
"O=C(NCCS(=O)(=O)N1CCN(C(=O)N[C@@H](C(=O)N[C@H]2Cc3ccc(F)c(C(=O)O)c3OB2O)c2cc(F)c(O)c(O)c2Cl)C1=O)Nc1ccncc1 [Example 290, (R)-3-((R)-2-(2-chloro-5-fluoro-3,4-dihydroxyphenyl)-2-(2-oxo-3-((2-(3-(pyridin-4-yl)ureido)ethyl)sulfonyl)imidazolidine-1-carboxamido)acetamido)-7-fluoro-2-hydroxy-3,4-dihydro-2H-benzo[e][1,2]oxaborinine-8-carboxylic acid]",> 64,16 to 32,16 to 32,16 to 32,> 64,> 64,4 to 8,1 to 2,16 to 32,16 to 32
